Data as given in patent publication US20190330224A1, “ACC INHIBITORS AND USES THEREOF” (Gilead Apollo, LLC, priority 2015, published 2019).
≈ marks a conversion by molar mass, not a printed value.

What was measured:
[1] = system: C. parapsilosis ATCC 22019; assay: Anti-Fungal Activity Assay (broth microtiter MIC), C. parapsilosis; format: cell-based, Candida parapsilosis; conditions: Lodderomyces parapsilosis, ATCC22019, 48 h, 3 replicates; MIC recorded at 48 h; read-out: MIC C. parapsilosis ATCC 22019
Method in brief: (§1)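 Susceptibility testing used direct colony suspensions in RPMI 1640+MOPS from Sabouraud dextrose agar grown at 35° C. Endpoints were visual MICs at 48 h under CLSI M27-A3 microtiter conditions, plus a 24 h reading for soraphen.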

[2] = compound concentration 10 ppm, foliar spray, evaluated 7 days after inoculation
Botrtyis cinerea (Bc) = assay: Growth inhibition assay of fungal pathogens, Bc; format: cell-based; conditions: 48 hours; read-out: Concentration at 90% Inhibition, Bc
Protocol: (§2) Compounds of the present invention were evaluated in a growth inhibition assay to determine the ability to control the growth of fungal pathogens, such as Botrtyis cinerea (Bc). Collectotrichum graminicola (Cg), Diplodia maydis (Dm), Fusarium moniliforme (Fm), Fusarium virguliforme (Fv), Phytophthora capsici (Pc), Rhizoctonia solani (Rs), and Septoria tritici (St). Compounds to be tested were dissolved in DMSO at 2.5 mg/ml to produce compound stock solutions (“stocks”). Stocks were diluted with DMSO by a five-fold dilution in a 96-well stock plate, and two sets of final concentrations of 50, 10, and 2 ppm or 2, 0.4, and 0.08 ppm were obtained in vitro. A set of positive controls was also prepared, with various concentrations of Soraphen (2, 0.4, and 0.08 ppm), Metalaxyl (1.1, 0.22, and 0.04 ppm), and Metconazole (2, 0.4, and 0.08 ppm or 0.2, 0.04, and 0.008 ppm) after the five-fold dilutions. Negative controls on each plate included 2% DMSO, water, and a blank (media+2% DMSO). Fungal spores were isolated from previously sub-cultured plates of Botrtyis cinerea (Bc), Collectotrichum graminicola (Cg), Diplodia maydis (Dm), Fusarium moniliforme (Fm), Fusarium virguliforme (Fv), Phytophthora capsici (Pc), and Septoria tritici (St). The isolated spores were diluted to individual concentrations with a 17% V8 liquid media. For Rhizoctonia solani (Rs) and Pythium irregulare, 1.5 mm mycelial plugs were used in place of spores and ¼ Potato Dextrose Broth (PDB) was used for dilution. The spore concentrations and plug sizes were based on growth curves generated at 48 hours for each pathogen. In a second 96-well plate, the spores or mycelial plugs, media, diluted compound solutions, and controls were combined. Once the compound was added, a true final concentration of compound in each well was measured by an OD600 reading, which adjusted for any compound precipitation that might have occurred in the well. Plate readings were repeated at both 24 and 48 hours. The blank negative control was used as a background subtraction. Additional visual ratings were performed at both 24 and 48 hours for checking on precipitation and confirming efficacy. Visual and OD600 ratings of the compounds at 48 hours were compared to the 2% DMSO negative control, and the percent of pathogen growth inhibition was determined based on those values.

Fungal ACC2 = Fungal ACC2 (UniProt Q00955); conditions: read-out: Fungal ACC2 (IC50, in vitro ACC2 inhibition)
[3] = system: Fusarium moniliforme (Fm); assay: Growth inhibition assay of fungal pathogens, Fm; format: cell-based; conditions: Fusarium verticillioides; 48 hours; read-out: Concentration at 90% Inhibition, Fm
Protocol: as §2

[4] = system: Collectotrichum graminicola (Cg); assay: Growth inhibition assay of fungal pathogens, Cg; format: cell-based; conditions: 48 hours; read-out: Concentration at 90% Inhibition, Cg
Protocol: as §2

C. krusei ATCC 6258 = assay: Anti-Fungal Activity Assay (broth microtiter MIC), C. krusei; format: cell-based, Candida krusei; conditions: Pichia kudriavzevii, ATCC6258, 48 h, 3 replicates; MIC recorded at 48 h; read-out: MIC C. krusei ATCC 6258
Method in brief: as §1

Septoria tritici (St) = assay: Growth inhibition assay of fungal pathogens, St; format: cell-based; conditions: Zymoseptoria tritici; 48 hours; read-out: Concentration at 90% Inhibition, St
Protocol: as §2

Rhizoctonia solani (Rs) = assay: Growth inhibition assay of fungal pathogens, Rs; format: cell-based; conditions: 48 hours, read-out: Concentration at 90% Inhibition, Rs
Protocol: as §2

[5] = system: Fusarium virguliforme (Fv); assay: Growth inhibition assay of fungal pathogens, Fv; format: cell-based; conditions: 48 hours, read-out: Concentration at 90% Inhibition, Fv
Protocol: as §2

[6] = system: Phytophthora capsici (Pc); assay: Growth inhibition assay of fungal pathogens, Pc; format: cell-based; conditions: 48 hours, read-out: Concentration at 90% Inhibition, Pc
Protocol: as §2

C. albicans ATCC 90028 = assay: Anti-Fungal Activity Assay (broth microtiter MIC), C. albicans; format: cell-based, Candida albicans; conditions: Candida albicans, ATCC90028, 48 h, 3 replicates; MIC recorded at 48 h; read-out: MIC C. albicans ATCC 90028
Method in brief: as §1

Human ACC2 = Human ACC2 (Homo sapiens, UniProt O00763); assay: In vitro ACC2 inhibition assay (ADP-Glo), human ACC2; format: biochemical; conditions: 5 nM ACC2, 20 μM ATP, 20 μM acetyl-CoA
Diplodia maydis (Dm) = assay: Growth inhibition assay of fungal pathogens, Dm; format: cell-based; conditions: Stenocarpella maydis; 48 hours; read-out: Concentration at 90% Inhibition, Dm
Protocol: as §2

Chain of Fungal ACC2 (Q00955 whole entry): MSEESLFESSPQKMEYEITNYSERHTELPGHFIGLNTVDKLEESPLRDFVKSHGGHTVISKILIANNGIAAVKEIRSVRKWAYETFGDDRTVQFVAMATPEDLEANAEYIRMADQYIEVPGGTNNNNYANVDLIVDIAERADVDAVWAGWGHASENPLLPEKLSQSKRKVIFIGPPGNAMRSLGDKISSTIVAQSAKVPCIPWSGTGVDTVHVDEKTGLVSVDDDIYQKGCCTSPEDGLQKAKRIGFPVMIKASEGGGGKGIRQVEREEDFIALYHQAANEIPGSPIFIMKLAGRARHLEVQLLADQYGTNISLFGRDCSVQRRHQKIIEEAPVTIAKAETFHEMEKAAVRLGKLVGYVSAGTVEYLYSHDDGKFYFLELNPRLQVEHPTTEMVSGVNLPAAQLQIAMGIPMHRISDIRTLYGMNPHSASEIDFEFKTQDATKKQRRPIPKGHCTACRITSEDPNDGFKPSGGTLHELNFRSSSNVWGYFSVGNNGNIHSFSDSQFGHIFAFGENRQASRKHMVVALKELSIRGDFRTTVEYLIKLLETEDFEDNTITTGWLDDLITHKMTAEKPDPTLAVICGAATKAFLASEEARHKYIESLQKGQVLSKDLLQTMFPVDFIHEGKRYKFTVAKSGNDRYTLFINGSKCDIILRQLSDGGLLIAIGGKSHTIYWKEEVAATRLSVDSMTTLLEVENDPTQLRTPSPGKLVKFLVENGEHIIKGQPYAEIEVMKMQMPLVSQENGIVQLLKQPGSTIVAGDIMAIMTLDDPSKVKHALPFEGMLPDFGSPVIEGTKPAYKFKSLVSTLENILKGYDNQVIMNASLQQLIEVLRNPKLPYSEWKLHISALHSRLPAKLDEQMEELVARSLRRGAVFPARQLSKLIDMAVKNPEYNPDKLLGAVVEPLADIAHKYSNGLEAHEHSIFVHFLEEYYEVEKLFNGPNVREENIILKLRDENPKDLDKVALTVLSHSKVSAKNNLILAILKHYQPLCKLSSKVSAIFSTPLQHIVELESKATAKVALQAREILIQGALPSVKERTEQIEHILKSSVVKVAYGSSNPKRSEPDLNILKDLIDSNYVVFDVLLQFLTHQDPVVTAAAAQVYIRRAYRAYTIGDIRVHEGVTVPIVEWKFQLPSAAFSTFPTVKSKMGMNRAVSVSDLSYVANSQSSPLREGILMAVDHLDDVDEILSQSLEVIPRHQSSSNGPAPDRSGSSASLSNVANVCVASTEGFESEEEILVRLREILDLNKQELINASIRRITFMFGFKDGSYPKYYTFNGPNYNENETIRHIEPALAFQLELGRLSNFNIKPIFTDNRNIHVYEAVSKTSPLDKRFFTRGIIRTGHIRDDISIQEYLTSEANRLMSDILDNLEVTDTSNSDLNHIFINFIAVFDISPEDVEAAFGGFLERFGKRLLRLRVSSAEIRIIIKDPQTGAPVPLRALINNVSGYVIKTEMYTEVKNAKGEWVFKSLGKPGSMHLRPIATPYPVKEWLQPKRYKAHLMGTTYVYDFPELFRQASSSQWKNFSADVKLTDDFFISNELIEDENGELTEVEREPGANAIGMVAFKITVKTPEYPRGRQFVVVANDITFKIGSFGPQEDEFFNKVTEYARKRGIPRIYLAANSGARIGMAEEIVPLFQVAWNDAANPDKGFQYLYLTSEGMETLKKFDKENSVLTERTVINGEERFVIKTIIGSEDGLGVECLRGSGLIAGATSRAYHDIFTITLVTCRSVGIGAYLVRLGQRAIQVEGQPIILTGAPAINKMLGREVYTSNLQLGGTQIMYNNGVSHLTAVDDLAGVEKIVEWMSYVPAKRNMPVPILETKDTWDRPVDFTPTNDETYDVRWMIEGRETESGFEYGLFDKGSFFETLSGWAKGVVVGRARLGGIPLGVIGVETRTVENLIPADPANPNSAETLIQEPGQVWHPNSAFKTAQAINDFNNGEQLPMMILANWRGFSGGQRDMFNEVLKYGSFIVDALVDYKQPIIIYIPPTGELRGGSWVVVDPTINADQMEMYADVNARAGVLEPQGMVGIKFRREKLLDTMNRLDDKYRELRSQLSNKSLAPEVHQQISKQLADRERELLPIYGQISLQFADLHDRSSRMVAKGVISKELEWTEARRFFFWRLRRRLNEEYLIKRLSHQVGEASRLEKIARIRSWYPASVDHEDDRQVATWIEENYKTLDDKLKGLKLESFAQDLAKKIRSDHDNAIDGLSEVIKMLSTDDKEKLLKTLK
Chain of Human ACC2 (O00763 whole entry): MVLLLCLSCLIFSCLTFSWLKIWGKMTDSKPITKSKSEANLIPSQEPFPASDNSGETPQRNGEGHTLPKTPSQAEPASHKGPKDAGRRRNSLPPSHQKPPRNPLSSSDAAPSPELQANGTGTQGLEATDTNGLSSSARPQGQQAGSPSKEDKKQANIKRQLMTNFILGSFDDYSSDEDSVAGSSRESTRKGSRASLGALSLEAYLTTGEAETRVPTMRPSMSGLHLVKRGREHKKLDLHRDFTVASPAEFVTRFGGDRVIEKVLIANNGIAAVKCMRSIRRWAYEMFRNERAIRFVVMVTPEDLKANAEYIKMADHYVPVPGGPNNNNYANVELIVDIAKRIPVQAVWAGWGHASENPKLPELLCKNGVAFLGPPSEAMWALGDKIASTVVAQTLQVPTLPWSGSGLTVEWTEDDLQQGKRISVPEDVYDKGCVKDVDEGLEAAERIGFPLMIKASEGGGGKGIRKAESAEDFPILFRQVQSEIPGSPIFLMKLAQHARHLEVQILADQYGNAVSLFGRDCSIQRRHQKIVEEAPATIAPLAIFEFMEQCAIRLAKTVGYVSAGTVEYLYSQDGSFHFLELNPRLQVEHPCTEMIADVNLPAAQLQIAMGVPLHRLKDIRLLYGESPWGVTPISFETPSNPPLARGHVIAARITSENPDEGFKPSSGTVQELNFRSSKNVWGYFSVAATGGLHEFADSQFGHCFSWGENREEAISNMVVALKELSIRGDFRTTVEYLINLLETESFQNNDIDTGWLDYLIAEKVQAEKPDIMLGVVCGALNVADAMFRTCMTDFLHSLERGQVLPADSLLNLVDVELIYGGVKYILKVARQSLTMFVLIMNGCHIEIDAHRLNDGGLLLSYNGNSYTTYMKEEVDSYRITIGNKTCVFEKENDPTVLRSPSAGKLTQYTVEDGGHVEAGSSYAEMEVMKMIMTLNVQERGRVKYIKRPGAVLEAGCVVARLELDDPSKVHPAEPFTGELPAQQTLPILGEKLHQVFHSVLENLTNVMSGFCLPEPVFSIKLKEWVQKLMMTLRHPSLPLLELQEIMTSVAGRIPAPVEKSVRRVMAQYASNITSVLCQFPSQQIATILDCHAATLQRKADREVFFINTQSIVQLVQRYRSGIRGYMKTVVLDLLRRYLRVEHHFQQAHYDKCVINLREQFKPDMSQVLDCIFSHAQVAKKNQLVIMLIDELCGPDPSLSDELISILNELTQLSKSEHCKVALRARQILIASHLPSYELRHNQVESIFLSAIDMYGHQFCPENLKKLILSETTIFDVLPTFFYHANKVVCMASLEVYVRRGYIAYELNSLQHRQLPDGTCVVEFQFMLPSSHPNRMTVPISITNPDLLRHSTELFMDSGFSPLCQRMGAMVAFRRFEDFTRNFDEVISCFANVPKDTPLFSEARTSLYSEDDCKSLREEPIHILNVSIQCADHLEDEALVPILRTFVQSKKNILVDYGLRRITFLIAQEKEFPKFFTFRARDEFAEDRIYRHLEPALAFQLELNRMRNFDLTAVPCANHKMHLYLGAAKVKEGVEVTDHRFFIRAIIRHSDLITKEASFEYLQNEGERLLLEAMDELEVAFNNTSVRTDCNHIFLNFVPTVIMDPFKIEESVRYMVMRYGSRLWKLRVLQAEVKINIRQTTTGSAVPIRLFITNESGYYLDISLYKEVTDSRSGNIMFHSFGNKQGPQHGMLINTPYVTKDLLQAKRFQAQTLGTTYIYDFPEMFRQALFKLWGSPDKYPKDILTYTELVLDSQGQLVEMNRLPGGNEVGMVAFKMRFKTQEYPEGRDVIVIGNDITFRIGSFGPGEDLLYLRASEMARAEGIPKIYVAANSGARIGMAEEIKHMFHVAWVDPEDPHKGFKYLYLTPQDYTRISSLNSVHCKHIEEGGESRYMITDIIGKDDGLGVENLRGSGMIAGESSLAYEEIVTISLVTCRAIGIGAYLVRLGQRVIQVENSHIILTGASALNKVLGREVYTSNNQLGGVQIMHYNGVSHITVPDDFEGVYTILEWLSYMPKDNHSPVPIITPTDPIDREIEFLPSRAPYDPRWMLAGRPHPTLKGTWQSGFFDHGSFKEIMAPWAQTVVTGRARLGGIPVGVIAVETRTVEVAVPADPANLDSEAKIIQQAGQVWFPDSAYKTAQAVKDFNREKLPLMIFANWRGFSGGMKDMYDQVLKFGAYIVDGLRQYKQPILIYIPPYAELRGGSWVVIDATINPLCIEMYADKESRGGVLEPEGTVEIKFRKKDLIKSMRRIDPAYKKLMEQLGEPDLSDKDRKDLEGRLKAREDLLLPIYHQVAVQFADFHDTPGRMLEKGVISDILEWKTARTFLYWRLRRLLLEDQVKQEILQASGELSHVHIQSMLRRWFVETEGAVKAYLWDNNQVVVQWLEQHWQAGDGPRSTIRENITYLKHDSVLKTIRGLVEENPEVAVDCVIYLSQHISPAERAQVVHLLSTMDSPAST

| Structure (SMILES) | MIC [1] | Barley Powdery Mildew Control at 10 ppm [2] | IC90 (Botrtyis cinerea (Bc)) | IC50 (Fungal ACC2) | IC90 [3] | IC90 [4] | MIC (C. krusei ATCC 6258) | IC90 (Septoria tritici (St)) | IC90 (Rhizoctonia solani (Rs)) | IC90 [5] | IC90 [6] | MIC (C. albicans ATCC 90028) | IC50 (Human ACC2) | IC90 (Diplodia maydis (Dm)) |
| --- | --- | --- | --- | --- | --- | --- | --- | --- | --- | --- | --- | --- | --- | --- |
| COc1ccc(F)cc1[C@H](Cn1c(=O)n([C@H]2CCN(C)C2=O)c(=O)c2c(C)c(-n3nccn3)sc21)OCCC#N [Compound I-108, 3-((R)-1-(5-fluoro-2-methoxyphenyl)-2-(5-methyl-3-((S)-1-methyl-2-oxopyrrolidin-3-yl)-2,4-dioxo-6-(2H-1,2,3-triazol-2-yl)-3,4-dihydro-thieno[2,3-d]pyrimidin-1 (2H)-yl)ethoxy)propanenitrile] | 2.1 to 4 µg/mL (≈ 3.7 to 7.05 µM) | AA (provided a compound having >85% control of barley powdery mildew) | 0.4 µg/mL (≈ 0.705 µM) | 0.7 to 2 nM | 0.08 µg/mL (≈ 0.141 µM) | 10 µg/mL (≈ 17.6 µM) | 2.1 to 4 µg/mL (≈ 3.7 to 7.05 µM) | > 50 µg/mL | 2 µg/mL (≈ 3.52 µM) | 2 µg/mL (≈ 3.52 µM) | > 50 µg/mL | 2.1 to 4 µg/mL (≈ 3.7 to 7.05 µM) | 2 to 10 nM | 10 µg/mL (≈ 17.6 µM) |
| COc1ccc(F)cc1[C@H](Cn1c(=O)n([C@@H]2CCN(C)C2=O)c(=O)c2c(C)c(-n3nccn3)sc21)OCCC#N [Compound I-109, 3-((R)-1-(5-fluoro-2-methoxyphenyl)-2-(5-methyl-3-((R)-1-methyl-2-oxopyrrolidin-3-yl)-2,4-dioxo-6-(2H-1,2,3-triazol-2-yl)-3,4-dihydro-thieno[2,3-d]pyrimidin-1(2H)-yl)ethoxy)propanenitrile] | 2.1 to 4 µg/mL (≈ 3.7 to 7.05 µM) | A (provided a compound having from 70% to 84% control of barley powdery mildew) | 0.4 µg/mL (≈ 0.705 µM) | 0.7 to 2 nM | 0.4 µg/mL (≈ 0.705 µM) | 2 µg/mL (≈ 3.52 µM) | 2.1 to 4 µg/mL (≈ 3.7 to 7.05 µM) | > 50 µg/mL | 2 µg/mL (≈ 3.52 µM) | 2 µg/mL (≈ 3.52 µM) | > 50 µg/mL | 2.1 to 4 µg/mL (≈ 3.7 to 7.05 µM) | 2 to 10 nM | 2 µg/mL (≈ 3.52 µM) |
| COc1ccc(F)cc1[C@@H](O)Cn1c(=O)n([C@@H]2CCN(C)C2=O)c(=O)c2c(C)c(-n3nccn3)sc21 [Compound I-166, 1-((R)-2-(5-fluoro-2-methoxyphenyl)-2-hydroxyethyl)-5-methyl-3-((R)-1-methyl-2-oxopyrrolidin-3-yl)-6-(2H-1,2,3-triazol-2-yl)thieno[2,3-d]pyrimidine-2,4(1H,3H)-dione] |  | B (provided a compound having from 50 to 69% control of barley powdery mildew) | 2 µg/mL (≈ 3.89 µM) | 0.7 to 2 nM | 2 µg/mL (≈ 3.89 µM) | 10 µg/mL (≈ 19.4 µM) |  | > 50 µg/mL | 2 µg/mL (≈ 3.89 µM) | 10 µg/mL (≈ 19.4 µM) | > 50 µg/mL |  | 2 to 10 nM | 10 µg/mL (≈ 19.4 µM) |
| COc1ccc(F)cc1[C@H](Cn1c(=O)n([C@H]2CCN(C)C2=O)c(=O)c2c(C)c(-n3cccn3)sc21)O[C@H]1CC[C@@H](O)CC1 [Compound I-182] | 2.1 to 4 µg/mL (≈ 3.43 to 6.54 µM) |  |  | 0.7 to 2 nM |  |  | 2.1 to 4 µg/mL (≈ 3.43 to 6.54 µM) |  |  |  |  | 2.1 to 4 µg/mL (≈ 3.43 to 6.54 µM) | 10 to 100 nM |  |
| COc1ccc(F)cc1[C@H](Cn1c(=O)n([C@@H]2CCN(C)C2=O)c(=O)c2c(C)c(-n3nccn3)sc21)O[C@H]1C[C@@H](O)C1 [Compound I-183, 1-((R)-2-(5-fluoro-2-methoxyphenyl)-2-((1s, 3S)-3-hydroxycyclobutoxy)ethyl)-5-methyl-3-((R)-1-methyl-2-oxopyrrolidin-3-yl)-6-(2H-1,2,3-triazol-2-yl)thieno[2,3-d]pyrimidine-2,4(1H,3H)-dione] | 1.1 to 2 µg/mL (≈ 1.88 to 3.42 µM) |  |  | 0.7 to 2 nM |  |  | 0.25 to 1 µg/mL (≈ 0.428 to 1.71 µM) |  |  |  |  | 0.25 to 1 µg/mL (≈ 0.428 to 1.71 µM) | 2 to 10 nM |  |
| COc1ccc(F)cc1[C@H](Cn1c(=O)n([C@@H]2CCNC2=O)c(=O)c2c(C)c(-n3nccn3)sc21)O[C@H]1C[C@@H](O)C1 [Compound I-184, 1-((R)-2-(5-fluoro-2-methoxyphenyl)-2-((1s, 3S)-3-hydroxycyclobutoxy)ethyl)-5-methyl-3-((R)-2-oxopyrrolidin-3-yl)-6-(2H-1-1,2,3-triazol-2-yl)thieno[2,3-d]pyrimidine-2,4(1H,3H)-dione] | 2.1 to 4 µg/mL (≈ 3.68 to 7.01 µM) |  |  | 0.7 to 2 nM |  |  | 2.1 to 4 µg/mL (≈ 3.68 to 7.01 µM) |  |  |  |  | 2.1 to 4 µg/mL (≈ 3.68 to 7.01 µM) | 2 to 10 nM |  |
| COc1ccc(F)cc1[C@H](Cn1c(=O)n([C@@H]2CCNC2=O)c(=O)c2c(C)c(-n3nccn3)sc21)O[C@H]1C[C@H](O)C1 [Compound I-186, 1-((R)-2-(5-fluoro-2-methoxyphenyl)-2-((1r,3R)-3-hydroxycyclobutoxy)ethyl)-5-methyl-3-((R)-2-oxopyrrolidin-3-yl)-6-(2H-1,2,3-triazol-2-yl)thieno[2,3-d]pyrimidine-2,4(1H,3H)-dione] | 2.1 to 4 µg/mL (≈ 3.68 to 7.01 µM) |  |  | 0.7 to 2 nM |  |  | 2.1 to 4 µg/mL (≈ 3.68 to 7.01 µM) |  |  |  |  | 2.1 to 4 µg/mL (≈ 3.68 to 7.01 µM) | 2 to 10 nM |  |
| COc1ccc(F)cc1[C@H](Cn1c(=O)n([C@H]2CCNC2=O)c(=O)c2c(C)c(-n3nccn3)sc21)O[C@H]1CC[C@@H](O)CC1 [Compound I-187, 1-((R)-2-(5-fluoro-2-methoxyphenyl)-2-(((1 s, 4S)-4-hydroxycyclohexyl)oxy)ethyl)-5-methyl-3-((S)-2-oxopyrrolidin-3-yl)-6-(2H-1,2,3-triazol-2-yl)thieno[2,3-d]pyrimidine-2,4(1H,3H)-dione] | 2.1 to 4 µg/mL (≈ 3.51 to 6.68 µM) |  |  | 0.7 to 2 nM |  |  | 2.1 to 4 µg/mL (≈ 3.51 to 6.68 µM) |  |  |  |  | 2.1 to 4 µg/mL (≈ 3.51 to 6.68 µM) | 2 to 10 nM |  |
| COc1ccc(F)cc1[C@H](Cn1c(=O)n([C@@H]2CCNC2=O)c(=O)c2c(C)c(-n3nccn3)sc21)O[C@H]1CC[C@@H](O)CC1 [Compound I-188, 1-((R)-2-(5-fluoro-2-methoxyphenyl)-2-(((1 s, 4S)-4-hydroxycyclohexyl)oxy)ethyl)-5-methyl-3-((R)-2-oxopyrrolidin-3-yl)-6-(2H-1,2,3-triazol-2-yl)thieno[2,3-d]pyrimidine-2,4(1H3H)-dione] | 1.1 to 2 µg/mL (≈ 1.84 to 3.34 µM) |  |  | 0.7 to 2 nM |  |  | 0.25 to 1 µg/mL (≈ 0.418 to 1.67 µM) |  |  |  |  | 0.25 to 1 µg/mL (≈ 0.418 to 1.67 µM) | 2 to 10 nM |  |
| Cc1c(-n2nccn2)sc2c1c(=O)n([C@@H]1CCN(C)C1=O)c(=O)n2C[C@H](O[C@H]1CC[C@@H](O)CC1)c1cc(F)ccc1O [Compound I-189, 1-((R)-2-(5-fluoro-2-hydroxyphenyl)-2-(((1s, 4S)-4-hydroxycyclohexyl)oxy)ethyl)-5-methyl-3-((R)-1-methyl-2-oxopyrrolidin-3-yl)-6-(2H-1,2,3-triazol-2-yl)thieno[2,3-d]pyrimidine-2,4(1H, 3H)-dione] | 2.1 to 4 µg/mL (≈ 3.51 to 6.68 µM) |  |  | 0.7 to 2 nM |  |  | 2.1 to 4 µg/mL (≈ 3.51 to 6.68 µM) |  |  |  |  | 2.1 to 4 µg/mL (≈ 3.51 to 6.68 µM) | 2 to 10 nM |  |
| Cc1c(-n2nccn2)sc2c1c(=O)n([C@H]1CCN(C)C1=O)c(=O)n2C[C@H](O[C@H]1CC[C@@H](O)CC1)c1cc(F)ccc1O [Compound I-190, 1-((R)-2-(5-fluoro-2-hydroxyphenyl)-2-(((1 s, 4S)-4-hydroxycyclohexyl)oxy)ethyl)-5-methyl-3-((S)-1-methyl-2-oxopyrrolidin-3-yl)-6-(2H-1,2,3-triazol-2-yl)thieno[2,3-d]pyrimidine-2,4(1H,3H)-dione] | 2.1 to 4 µg/mL (≈ 3.51 to 6.68 µM) |  |  | 0.7 to 2 nM |  |  | 2.1 to 4 µg/mL (≈ 3.51 to 6.68 µM) |  |  |  |  | 2.1 to 4 µg/mL (≈ 3.51 to 6.68 µM) | 10 to 100 nM |  |
